The values below come from patent US9079900B2, “Methods of synthesis and purification of heteroaryl compounds” (SIGNAL PHARMACEUTICALS, LLC, priority 2009, dated 2015).

The term melting point denotes the temperature, or range, at which the solid turns liquid. As to `CC(C)(O)c1ccc(-c2cnc3c(n2)N(CCN2CCOCC2)CC(=O)N3)cn1` [Example 5, 6-(6-(2-Hydroxypropan-2-yl)pyridin-3-yl)-4-(2-morpholinoethyl)-3,4-dihydropyrazino[2,3-b]pyrazin-2(1H)-one], the melting point lay in the range of 239 to 241 °C.

`O=C1CNc2ncc(-c3cnc4[nH]ccc4c3)nc2N1CCC1CCOCC1` [Example 15, 7-(1H-Pyrrolo[2,3-b]pyridin-5-yl)-1-(2-(tetrahydro-2h-pyran-4-yl)ethyl)-3,4-dihydropyrazino[2,3-b]pyrazin-2(1H)-one]: the melting point was in the range of 255 to 258 °C.
